US6479435B1, “Diaryl ethers and processes for their preparation and herbicidal and desiccant compositions containing them” (ISK Americas Incorporated, priority 1997, dated 2002)

Experiments:
Assay type in all cases: in vivo
[1] = test system: Johnsongrass (Sorghum halepense, SORHA); test: Pre-emerge greenhouse herbicide test, phytotoxicity rating; conditions: 14 days after application, rating scale 0-100
Method in brief: (§1)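 Visual 0–100 injury rating (100 = all plants dead) taken 14 days after treatment. Rates of 125–1000 g ai/ha in acetone, 187 l/ha, were sprayed onto soil one day post-sowing; pots were surface-watered to incorporate, then bottom-watered.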

[2] = test system: barnyardgrass (Echinochloa crusgalli, ECHCG); test: as above; conditions: 14 days after application, rating scale 0-100
Method in brief: as §1

[3] = test system: common ragweed (Ambrosia artemisiifolia L., AMBEL); test: as above; conditions: 14 days after application, rating scale 0-100
Method in brief: as §1

[4] = test system: green foxtail (Setaria viridis, SETVI); test: as above; conditions: 14 days after application, rating scale 0-100
Method in brief: as §1

[5] = test system: ivyleaf morningglory (Ipomoea hederacea, IPOHE); test: as above; conditions: 14 days after application, rating scale 0-100
Method in brief: as §1

[6] = test system: lambsquarters (Chenopodium album, CHEAL); test: as above; conditions: 14 days after application, rating scale 0-100
Method in brief: as §1

[7] = test system: large crabgrass (Digitaria sanguinalis, DIGSA); test: as above; conditions: 14 days after application, rating scale 0-100
Method in brief: as §1

[8] = test system: redroot pigweed (Amaranthus retroflexus, AMARE); test: as above; conditions: 14 days after application, rating scale 0-100
Method in brief: as §1

[9] = test system: sicklepod (Cassia obtusifolia, CASOB); test: as above; conditions: 14 days after application, rating scale 0-100
Method in brief: as §1

[10] = test system: velvetleaf (Abutilon theophrasti, ABUTH); test: as above; conditions: 14 days after application, rating scale 0-100
Method in brief: as §1

[11] = test system: field corn (Zea mays L., var. Dekalb 535, CORN); test: Pre-emerge greenhouse test, crop damage rating; conditions: 14 days after application, rating scale 0-100
Method in brief: as §1

[12] = test system: upland rice (Oryza sp., var.Tebonnet, RICE); test: Pre-emerge greenhouse test, crop damage rating; conditions: 14 days after application, rating scale 0-100
Method in brief: as §1

[13] = test system: soybean (Glycine max L., var. Pella 86, SOY); test: Pre-emerge greenhouse test, crop damage rating; set-up: key to SOY crop damage rating: 0 = no damage, 100 = complete death of all plants; conditions: 14 days after application, rating scale 0-100
Method in brief: as §1

[14] = test system: common ragweed (Ambrosia artemisiifolia L., AMBEL); test: Post-emerge greenhouse herbicide test, phytotoxicity rating; conditions: 14 days after application, scale 0-100
Method in brief: (§2)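 Scores use a 0 (no damage) to 100 (complete kill) scale, taken 14 days after a foliar spray. Acetone solutions with 0.25% v/v non-ionic surfactant were applied by track sprayer at 187 l/ha and 63-1000 g ai/ha to bottom-watered 2-3 leaf plants.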

[15] = test system: Johnsongrass (Sorghum halepense, SORHA); test: as above; conditions: 14 days after application, scale 0-100
Method in brief: as §2

[16] = test system: barnyardgrass (Echinochloa crusgalli, ECHCG); test: as above; conditions: 14 days after application, scale 0-100
Method in brief: as §2

[17] = test system: green foxtail (Setaria viridis, SETVI); test: as above; conditions: 14 days after application, scale 0-100
Method in brief: as §2

[18] = test system: ivyleaf morningglory (Ipomoea hederacea, IPOHE); test: as above; conditions: 14 days after application, scale 0-100
Method in brief: as §2

[19] = test system: lambsquarters (Chenopodium album, CHEAL); test: as above; conditions: 14 days after application, scale 0-100
Method in brief: as §2

[20] = test system: large crabgrass (Digitaria sanguinalis, DIGSA); test: as above; conditions: 14 days after application, scale 0-100
Method in brief: as §2

[21] = test system: redroot pigweed (Amaranthus retroflexus, AMARE); test: as above; conditions: 14 days after application, scale 0-100
Method in brief: as §2

[22] = test system: sicklepod (Cassia obtusifolia, CASOB); test: as above; conditions: 14 days after application, scale 0-100
Method in brief: as §2

[23] = test system: velvetleaf (Abutilon theophrasti, ABUTH); test: as above; conditions: 14 days after application, scale 0-100
Method in brief: as §2

[24] = test system: field corn (Zea mays L., var. Dekalb 535, CORN); test: Post-emerge greenhouse test, crop damage rating; conditions: 14 days after application, scale 0-100
Method in brief: as §2

[25] = test system: upland rice (Oryza sp., var.Tebonnet, RICE); test: Post-emerge greenhouse test, crop damage rating; conditions: 14 days after application, scale 0-100
Method in brief: as §2

[26] = test system: soybean (Glycine max L., var. Pella 86, SOY); test: Post-emerge greenhouse test, crop damage rating; set-up: key to crop damage rating SOY: 0-100 scale: 0 = no damage, 100 = complete death of all plants; conditions: 14 days after application, scale 0-100
Method in brief: as §2

O=c1n(-c2cc(Oc3ccc([N+](=O)[O-])cn3)c(Cl)cc2F)c(=S)n2n1CCCC2 [Compound 8-23] was tested, and the SORHA phytotoxicity rating ([1]; Rate 125 g al/ha) was 0, the SORHA phytotoxicity rating ([1]; Rate 500 g al/ha) was 30 and the ECHCG phytotoxicity rating ([2]; Rate 125 g al/ha) was 0. The ECHCG phytotoxicity rating ([2]; Rate 500 g al/ha) was 10, the AMBEL phytotoxicity rating ([3]; Rate 125 g al/ha) was 0 and the AMBEL phytotoxicity rating ([3]; Rate 500 g al/ha) was 60. The SETVI phytotoxicity rating ([4]; Rate 125 g al/ha) was 10, the SETVI phytotoxicity rating ([4]; Rate 500 g al/ha) was 100 and the IPOHE phytotoxicity rating ([5]; Rate 125 g al/ha) was 30. For the same compound, the IPOHE phytotoxicity rating ([5]; Rate 500 g al/ha) was 60, the CHEAL phytotoxicity rating ([6]; Rate 125 g al/ha) was 100 and the CHEAL phytotoxicity rating ([6]; Rate 500 g al/ha) was 100. It also gave a DIGSA phytotoxicity rating ([7]; Rate 125 g al/ha) of 0, a DIGSA phytotoxicity rating ([7]; Rate 500 g al/ha) of 50 and an AMARE phytotoxicity rating ([8]; Rate 125 g al/ha) of 90. For the same compound, the AMARE phytotoxicity rating ([8]; Rate 500 g al/ha) was 100, the CASOB phytotoxicity rating ([9]; Rate 125 g al/ha) was 0 and the CASOB phytotoxicity rating ([9]; Rate 500 g al/ha) was 50. The ABUTH phytotoxicity rating ([10]; Rate 125 g al/ha) was 95, the ABUTH phytotoxicity rating ([10]; Rate 500 g al/ha) was 100 and the “CORN crop damage rating” value ([11]; Rate 125 g al/ha) was 0. The “CORN crop damage rating” value ([11]; Rate 500 g al/ha) was 0, the “RICE crop damage rating” value ([12]; Rate 125 g al/ha) was 0 and the “RICE crop damage rating” value ([12]; Rate 500 g al/ha) was 0. The “SOY crop damage rating” value ([13]; Rate 125 g al/ha) was 0, the “SOY crop damage rating” value ([13]; Rate 500 g al/ha) was 20 and the “phytotoxicity rating AMBEL” value ([14]; rate 63 g ai/ha) was 50. The “phytotoxicity rating AMBEL” value ([14]; rate 500 g ai/ha) was 100, the “phytotoxicity rating SORHA” value ([15]; rate 63 g ai/ha) was 0 and the “phytotoxicity rating SORHA” value ([15]; rate 500 g ai/ha) was 20. For the same compound, the “phytotoxicity rating ECHCG” value ([16]; rate 63 g ai/ha) was 0, the “phytotoxicity rating ECHCG” value ([16]; rate 500 g ai/ha) was 0 and the “phytotoxicity rating SETVI” value ([17]; rate 63 g ai/ha) was 0. For the same compound, the “phytotoxicity rating SETVI” value ([17]; rate 500 g ai/ha) was 20, the “phytotoxicity rating IPOHE” value ([18]; rate 63 g ai/ha) was 50 and the “phytotoxicity rating IPOHE” value ([18]; rate 500 g ai/ha) was 100. The “phytotoxicity rating CHEAL” value ([19]; rate 63 g ai/ha) was 95, the “phytotoxicity rating CHEAL” value ([19]; rate 500 g ai/ha) was 99 and the “phytotoxicity rating DIGSA” value ([20]; rate 63 g ai/ha) was 0. For the same compound, the “phytotoxicity rating DIGSA” value ([20]; rate 500 g ai/ha) was 0, the “phytotoxicity rating AMARE” value ([21]; rate 63 g ai/ha) was 95 and the “phytotoxicity rating AMARE” value ([21]; rate 500 g ai/ha) was 99. The “phytotoxicity rating CASOB” value ([22]; rate 63 g ai/ha) was 70, the “phytotoxicity rating CASOB” value ([22]; rate 500 g ai/ha) was 100 and the “phytotoxicity rating ABUTH” value ([23]; rate 63 g ai/ha) was 100. For the same compound, the “phytotoxicity rating ABUTH” value ([23]; rate 500 g ai/ha) was 100, the “crop damage rating CORN” value ([24]; rate 63 g ai/ha) was 0 and the “crop damage rating CORN” value ([24]; rate 500 g ai/ha) was 5. The “crop damage rating RICE” value ([25]; rate 63 g ai/ha) was 0, the “crop damage rating RICE” value ([25]; rate 500 g ai/ha) was 0 and the “crop damage rating SOY” value ([26]; rate 63 g ai/ha) was 25. For the same compound, the “crop damage rating SOY” value ([26]; rate 500 g ai/ha) was 60.
